# Data from patent US20220339249A1, “COMPOSITE BIOMARKER FOR CANCER THERAPY” (Bristol-Myers Squibb Company, priority 2019, published 2022).
# Columns and labels:
# TDO2 = TDO2 (Homo sapiens, UniProt P48775); details: cited from earlier work
# tumors = experiment: Response to nivolumab monotherapy (CheckMate trials) by TDO2 expression; assay type: in vivo, human; details: immuno-oncology naïve patients
# Experimental: TDO2 expression was determined by median. All tumors are […] from the biomarker cohort (Clinical Trial No. NCT02658890). Nivolumab monotherapy data is from CheckMate trials. NE=not evaluable; PD=progressive disease; PR=partial response; SCCHN=squamous cell carcinoma of the head and neck; SD=stable disease; TDO2=tryptophan 2,3-dioxygenase 2.
# Therefore, the association between TDO2 expression and clinical response was evaluated. High or low TDO2 expression levels were determined by the median. Based on the objective response rate, 26% of patients with low TDO2 expression responded to treatment while only 13% of patients with high TDO2 expression responded to treatment (TABLE 4).
# [1] = monotherapy, every two weeks; MTD not reached; cited from earlier work
# Sequence of TDO2 (P48775 whole entry): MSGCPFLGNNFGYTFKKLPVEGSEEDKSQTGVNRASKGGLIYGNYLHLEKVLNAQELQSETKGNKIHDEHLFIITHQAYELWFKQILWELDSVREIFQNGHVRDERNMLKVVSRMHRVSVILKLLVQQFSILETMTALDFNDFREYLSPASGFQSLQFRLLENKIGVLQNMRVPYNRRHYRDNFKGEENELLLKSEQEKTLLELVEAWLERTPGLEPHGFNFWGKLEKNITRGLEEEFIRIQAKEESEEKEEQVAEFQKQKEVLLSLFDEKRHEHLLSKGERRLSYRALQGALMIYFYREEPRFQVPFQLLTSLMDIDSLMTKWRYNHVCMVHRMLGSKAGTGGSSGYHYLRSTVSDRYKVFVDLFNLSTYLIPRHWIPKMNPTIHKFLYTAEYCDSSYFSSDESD
Molecule,inhibition of TDO2 enzymatic activity (TDO2),association between TDO2 expression and response (tumors),maximum tolerated dose (MTD) [1] [mg/kg]
"C[C@@H](C(=O)Nc1ccc(Cl)cc1)[C@H]1CC[C@@H](c2ccnc3ccc(F)cc32)CC1 [linrodostat, (2R)—N-(4-chlorophenyl)-2-(cis-4-(6-fluoroquinolin-4-yl)cyclohexyl)propanamide]",not TDO2 enzymatic activity,,
nivolumab,,No association,> 10
